Measured values: patent US8815234B2, “Treatment of human or animal body surface infection” (Insense Limited, priority 2009, dated 2014)

Tested on: Trichophyton rubrum
Experiment: In vitro flat bed static diffusion model, kill curves of Trichophyton rubrum
Type: cell-based
Conditions: for effect of peroxidase in disc at lowest concentration compared to the test treatment alone: 1 μg ml^−1 enzyme in disc plus active topical treatment; for potentiation of the effects of the topical treatment by peroxidase within the disc (words): 1, 100 and 500 μg/ml enzyme in disc plus active topical treatment; for relative potency of horseradish peroxidase versus lactoperoxidase in enhancing fungal killing (words): enzyme in disc plus active topical treatment
Protocol: Test discs were soaked in 50% serum containing 10^7 fungal cells to re-create a high protein environment. They were placed on a gel bed, also containing 50% serum to mimic contact with the nail bed. The discs were dosed with aqueous solutions of either horse radish peroxidase or lactoperoxidase, each set of discs having different dose levels of the enzymes. Control discs were left with no peroxidase of any kind. The experiment was started by applying hydrogen peroxide generating stratified patches (see below) to the surfaces of most of the test discs, and these were left in place for defined periods of time. Some discs were left uncovered as additional experimental controls to determine how well the fungal cells survived when left untreated. At set time-intervals, representative discs were removed for sampling, and the numbers of surviving fungal cells were determined by standard methods.
An in vitro flat bed static diffusion model was utilised, based upon the techniques described in “In vitro diffusion bed, 3-day repeat challenge ‘capacity’ test for antimicrobial wound dressings”, J. Greenman, R. M. S. Thorn, S. Saad, A. Austin International Wound Journal (2006), 3, 322-329.
The test inoculum was prepared by emulsifying mature surface growth biomass of Trichophyton rubrum on potato dextrose agar in Saboraud liquid medium, removing the suspension, vortex mixing, and then allowing large particles to settle out of solution. The resulting suspension was adjusted via spectrophotometry to give a standardised inoculum around 10^7 cfu ml^−1, which is sufficiently dense to enable any fungicidal effects to be detected (>10^3 cfu reduction is seen as indicative of a cidal effect).
A 100 μl volume of the defined inocula was re-suspended in replicate cellulose discs on the surface of a poly-AMPS test bed (the formulation of which is identical to the Layer 1 hydrogel as described in Example 1, but cast as a 25 g gel sheet per 10×10 cm dish), whereby test products can then be applied (FIG. 1). A two layer dressing was tested. The layers were prepared as described in Example 1. Lactoperoxidase or horse radish peroxidase enzymes were prepared by dissolving in analytical water at the required concentration prior to use. It is thought that lactoperoxidase may potentiate any antifungal effects of the novel topical treatment, and for some of the experimental systems cellulose discs were pre-treated with a lactoperoxidase or horseradish peroxidise solution to ascertain differential effects.
The two layer dressings were activated by bringing the two layers together. The hydrogel sheet was placed into contact with the cellulose disc and the dry film then applied to the uppermost surface of the hydrogel sheet. Test beds were incubated at 28° C., and at set time intervals (0, 1, 2, 4 & 24 h); cellulose discs were removed, re-suspended in PBSa, serially diluted and then spiral plated onto Saboraud dextrose agar. After incubation (5 days) the number of dermatophyte survivors at different time points after treatment exposure was determined by colony counting (cfu disc^−1). The results were graphed and analysed using GraphPad Prism (v.4).

| Substance | effect of peroxidase in disc at lowest concentration compared to the test treatment alone | potentiation of the effects of the topical treatment by peroxidase within the disc (words) | potentiation of the effects of the topical treatment by peroxidase within the disc (words) (listed as peroxidise) | potentiation of the effects of the topical treatment by peroxidase within the disc (words) (listed as horse radish peroxidise) | relative potency of horseradish peroxidase versus lactoperoxidase in enhancing fungal killing (words) (listed as horse radish peroxidase) | relative potency of horseradish peroxidase versus lactoperoxidase in enhancing fungal killing (words) (listed as horseradish peroxidise) |
| --- | --- | --- | --- | --- | --- | --- |
| lactoperoxidase | no significant effect compared to the test treatment alone | potentiate the effects of the topical treatment in a concentration dependant manner | potentiate the effects of the topical treatment |  |  |  |
| horseradish peroxidase [Horseradish peroxidise] | has a significant effect | potentiates the effects of the topical treatment in a concentration dependent manner |  | potentiate the effects of the topical treatment | more potent than lactoperoxidase | more efficacious |
